According to patent US20060281680A1, “Methods and compositions for modulating vascular integrity” (GENENTECH, INC., priority 2005, published 2006):

How the values were obtained:
Assay type in all cases: cell-based, human
[1] = tested on: DSCR1; test: GeneCalling analysis of DSCR1 mRNA expression in HUVECs; conditions: VEGF 30 ng/mL, relative to basal conditions
Description: (§1) Cells and cell assays. Primary human endothelial cells were purchased from Clonetics (Santa Rosa, Calif.) and cultured according to the manufacturer's instructions. For gene calling experiments, human umbilical vein endothelial cells (HUVECs) were purchased from Clonetics (BioWhittaker, Walkersville, Md.) and maintained in endothelial growth medium (EBM-2) complemented with 5% fetal calf serum (FCS) following the manufacturer's instructions. Cells (1×107) were split at a cell density of 19 000 cell/cm2 and triplicate experiments for each condition were run in parallel. Twenty-four hours after plating the cells, cell were washed 3 times with phosphate-buffered saline (PBS) and media (Clonetics) containing either 0.1% bovine serum albumin (BSA) or 0.1% BSA plus VEGF (30 ng/mL) or 5% FCS. RNA isolation and reverse transcription-PCR (RT-PCR) analysis was performed as described.^21 For cell culture experiments, the following conditions were used: human (h) VEGF, 30 ng/mL; hTNF-α, 10 ng/mL; PMA, 200 ng/mL (Calbiochem, LaJolla, Calif.); CsA, 1 μM (Calbiochem); IO 5 μM (Sigma, St Louis, Mo.); thapsigargin, 50 nM (Sigma). […] 24 hours after serum starvation and dosing, cell were counted on a Coulter brand style cell counter. […]

[2] = tested on: HUVECs; test: GeneCalling gene expression profiles of stimulated HUVECs
Description: as §1

[3] = tested on: DSCR1; test: DSCR1 expression analysis by real-time RT-PCR (TaqMan) in HUVECs; conditions: serum-starved HUVECs, over 36 hours
Description: (§2) Cells and cell assays. Primary human endothelial cells were purchased from Clonetics (Santa Rosa, Calif.) and cultured according to the manufacturer's instructions. For gene calling experiments, human umbilical vein endothelial cells (HUVECs) were purchased from Clonetics (BioWhittaker, Walkersville, Md.) and maintained in endothelial growth medium (EBM-2) complemented with 5% fetal calf serum (FCS) following the manufacturer's instructions. Cells (1×107) were split at a cell density of 19 000 cell/cm2 and triplicate experiments for each condition were run in parallel. Twenty-four hours after plating the cells, cell were washed 3 times with phosphate-buffered saline (PBS) and media (Clonetics) containing either 0.1% bovine serum albumin (BSA) or 0.1% BSA plus VEGF (30 ng/mL) or 5% FCS. RNA isolation and reverse transcription-PCR (RT-PCR) analysis was performed as described.^21 For cell culture experiments, the following conditions were used: human (h) VEGF, 30 ng/mL; hTNF-α, 10 ng/mL; PMA, 200 ng/mL (Calbiochem, LaJolla, Calif.); CsA, 1 μM (Calbiochem); IO 5 μM (Sigma, St Louis, Mo.); thapsigargin, 50 nM (Sigma). In one instance inhibiting (si) RNAs were generated by Dharmacon (Lafayette, Colo.) based on the full-length cDNAs of the respective gene and using the “Smart-pool” service (Dharmacon, Lafayette, Colo.). For adenoviral transduction survival experiments, human umbilical vein endothelial cells (HUVECs) were maintained in endothelial growth medium (EBM-2) complemented with 5% FCS following the manufacturer's instructions. 3×10^5 cells were split per well of a 6 well plate (Primaria, BD Biosciences, Bedford, Mass.) and duplicate experiments for each condition were run in parallel. Cells were infected with adenovirus (MOI=100) encoding for a gD peptide (Ad-Control), DSCR1 (Ad-DSCR1) or an antisense construct with the coding sequence inverted (Ad-DSCR1-AS) for 2 h in serum free media containing 10 mM […] and 10 nM MgCl2 on a vertical shaker at room temperature. Thereafter, 5 times the volume of regular growth medium containing 5% FCS was added and cells were kept for 1 day in a CO2 incubator. Thereafter, cells were washed three times with PBS and basal media (Clonetics, Santa Rosa, Calif.) containing 0.1 % BSA was added and PMA/IO, H202, and ZVAD as indicated. 24 hours after serum starvation and dosing, cell were counted on a Coulter brand style cell counter. For cell culture experiments, the following conditions were used: PMA: 200 ng/ml (Calbiochem, LaJolla, Calif.), Ionomycine: 5 μM (Sigma, St. Louis, Mo.), a 3% H202 solution was diluted 1:300 in basal media, 0.1% BSA to result in a 0.01% H202 solution, ZVAD 5 μM.

[4] = tested on: DSCR1; test: DSCR1 expression by real-time RT-PCR in HPAECs, HMVECs and HUAECs; conditions: HMVECs, HUAECs
Description: as §1

[5] = tested on: DSCR1; test: Western blot of DSCR1 protein in whole cell extracts of HUVECs; conditions: 6 hours of stimulation
Experimental: Cells cultured in 10-cm dishes were washed twice in Tris (tris(hydroxymethyl)aminomethane)-buffered saline, and 0.6 mL RIPA buffer (10 mM PBS, 1% Nonidet P-40, 0.5% sodium deoxycholate, 0.1% sodium dodecyl sulfate [SDS], […] phenylmethylsulfonyl fluoride, 30 μg/mL aprotinin, 1 mM sodium orthovanadate), and protease inhibitors (Roche Pharmaceuticals, Gaithersburg, Md.) were added. Mouse monoclonal antibody (mAb) directed against human NFATc 1, c2, and c3 was purchased from Santa Cruz Biotechnology (Santa Cruz, Calif.). Affinity-purified goat polyclonal antibody against human E-selectin, vascular cell adhesion molecule-1 (VCAM-1), intercellular adhesion molecule-1 (ICAM-1), and Cox-2 was from BD Pharmingen. Total endothelial cell extract, polyacrylamide gel electrophoresis (PAGE), blotting, and immunodetection were performed according to the Santa Cruz Biotechnology protocol. A total of […] whole-cell extract was loaded on each lane of a 4% to 16% polyacrylamide gel. The enhanced chemiluminescence (ECL) reaction kit was purchased from Amersham Pharmacia Biotech (Piscataway, N.J.), and horseradish peroxidase streptavidin from Vector Laboratories (Burlingame, Calif.) was used. For NFATc1 experiments, equal amounts of cell extract were loaded to visualize NFATc1 (mAb 7A6; 1:500; Santa Cruz Biotechnology) and the loading control α-tubulin (mAb from ICN, Santa Ana, Calif.; 1:5000). For Cox-2 and TF immunoblot analysis equal amounts of cell lysate were loaded on a 6% to 12% gradient SDS-PAGE. Cox-2 was analyzed with an anti-Cox2 mAb (RDI, 1:500) and TF with an anti-hTF mAb (clone 7G11) was generated at Genentech, and used at a 1:500 dilution. Before loading the samples on the gel, the protein amounts were quantified and adjusted accordingly. As loading control, an anti-γ-adaptin mAb was used (1:1000) on a 4% to 20% polyacrylamide gel.
DSCR1 was PCR amplified with primers DSCR1-EcoRI-Pro 5′, adding an extra proline and DSCR1-Stop-XhoI 3′, by using DSCR1 cDNA as a template and cloned into pGEX-KG. GST-DSCR1 was expressed and purified essentially as described previously.^23 Polyclonal rabbit anti-GST-DSCR1 was prepared by immunization with recombinant GST-DSCR1. Filtered crude serum was used for Western blots (1:400).

[6] = tested on: NFATc1; test: IHC/immunofluorescence analysis of nuclear translocation of NFATc1; conditions: endothelial cells, 20 minutes after VEGF 30 ng/mL; adenoviral transduction MOI=100
Experimental: Primary human endothelial cells (7×10^3 cells/cm^2) were seeded into each well of an 8-chamber microscope slide (Nalgene Nunc, Naperville, Ill.) 24 hours prior to staining. Cells were infected with adenovirus (multiplicity of infection [MOI]=100) encoding for LacZ or DSCR1 for 2 hours in serum-free media containing 10 mM CaCl2 and 10 nM MgCl2 on a vertical shaker at room temperature. Thereafter, 5 times the volume of regular growth medium was added and cells were kept for 2 days in a CO2 incubator. After replacing the media, cells were treated with hVEGF at a concentration of 30 ng/mL for 20 minutes. Prior to incubation with various antibodies, cells were fixed with methanol for 4 minutes at −20° C. and washed with PBS at room temperature. Cells were incubated in PBS containing the primary mouse antihuman NFATc1 antibody (sc7294, Santa Cruz Biotechnology) for 1 hour at room temperature. Cells were then washed 3 times with PBS and incubated in PBS containing Alexa Fluor 488 antimouse IgG (Molecular Probes, Eugene, Oreg.). Cells were finally washed 3 times with PBS and mounted beneath coverslips in Vectashield medium (Vector Laboratories). Microscopy and photography were conducted using a Zeiss Axiovert 200 fluorescence microscope fitted with an AxioCam MR monochrome camera (Zeiss, Thornwood, N.Y.) using a ×63 oil objective.

[7] = tested on: Cox-2, E-selectin, TF; test: Real-time RT-PCR of inflammatory marker / VEGF target genes in HUVECs
Description: as §2

VEGF
induced DSCR1 mRNA expression ([1]; after 6 hours): 4.8 fold
induced DSCR1 mRNA expression ([1]; after 24 hours): 2.9 fold
changes in traces representing alterations in expression of genes ([2]; after 6 hours): 1.7%
changes in traces representing alterations in expression of genes ([2]; after 24 hours): 3.4%
DSCR1 expression levels (real-time RT-PCR) [3]: induced prolonged expression of DSCR1
DSCR1 expression (real-time RT-PCR) [4]: increased levels of DSCR1 expression
DSCR1 protein levels [5]: induction of DSCR1
nuclear localization of NFATc1 [6]: prominent nuclear localization of NFATc1
expression of Bcl-2 ([7]; HUVECs, VEGF stimulation, entire experiment): consistently expressed
GM-CSF, TF, COX-2, VCAM-1 and E-selectin RNA levels ([7]; HUVECs, between 0 and 2 hours after VEGF): increased
GM-CSF, TF, COX-2, VCAM-1 and E-selectin RNA levels ([7]; HUVECs, between 6 and 36 hours after VEGF, compared to untreated cells): reversed into repression
increase in gene expression (COX2, E-selectin, TF mRNA) ([7]; endothelial cells, 4 hours of incubation): 2- to 3 fold
